System: yeast MEP strain ZHY2
Experiment: Mother enrichment program (MEP) assay
Type: cell-based, Saccharomyces cerevisiae
Conditions: 0-100 μM PN6, particularly above 10 μM; FIGS. 1A-1D
Experimental: The MEP strain ZHY2 cells were cultured at 30° C. overnight in liquid yeast 5 extract peptone dextrose (YEPD) medium containing 0, 0.1, 0.5, 2, 10, 25, 50, or 100 μM PN6, and the cultures were diluted to A600=0.25 and recovered to the log phase. Cultures were counted and inoculated in culture tubes at a cell density of 2×10^3 cells/ml. Estradiol was added to the mixtures to achieve a final concentration of 1 μM, and the mixtures were incubated in a roller drum at 50 rpm and 30° C. for 60 hours. Each group was monitored by harvesting samples at the indicated time points. The collected samples were washed and plated in solid YEPD media without estradiol, and the viability is reported as CFUs per 500 μl. The software OpenCFU 3.8 was used to calculate colonies.

## CCC(CC[C@@H](C)C1CCC2C3CC(=O)[C@H]4C[C@@H](O)CC[C@]4(C)C3CC[C@@]21C)C(C)C (stereo in doubt) [PN6, (24S)-3β-hydroxy-5α-stigmastan-6-one]
  viability of yeast ZHY2: increased proportionally with the concentration of PN6

From patent publication US20250009763A1, “METHODS FOR EXTENDING LIFESPAN AND/OR DELAYING AGING” (priority 2023, published 2025)
